Assay results reported in patent publication US20250019379A1, “NEW CRYSTAL FORM OF COMPOUND, AND PREPARATION METHOD THEREFOR AND USE THEREOF” (E-nitiate Biopharmaceuticals (Hangzhou) Co., Ltd, priority 2021, published 2025).
Values joined by “and” are separate entries in the source; they are usually repeats but may differ in a detail not shown here. Equal values may be shown once. Marks after values point to notes of the source that are not given here.

Tested on: atopic dermatitis animal model
Assay: Atopic dermatitis animal model (dinitrochlorobenzene induced)
Assay type: in vivo, BALB/C mice
Settings: for Inhibition rate of auricular thickening / Inhibition rate of skin thickening: 10th day of treatment
Text: BALB/C mice, 55 pieces, female, were 6 weeks old at the time of purchase and 8 weeks old at the time of experiment, weighing 18 g-20 g. The animals were from Shanghai Lingchang Biotechnology Co, Ltd (SCXK (Shanghai) 2018-0003), experimental animal production certificate number 20180003012342: experimental animal use license number; SYXK(Shanghai)2020-0001 (Via Biotechnology (Shanghai) Ltd.).
Modeling and administration method; Use depilatory cream to remove the hair of an area of about 5 cm×2 cm from the top of the head to the back of each animal. The application time of the depilatory cream should be controlled within 2 minutes. Wash the depilated area with warm water and wash off the depilatory agent, immediately use a hair dryer to dry the animal's hair, and place the animal on a 37° C. constant-temperature electric blanket for 1 h-2 h. After the animal moves freely, place it in a breeding cage and recover for 1 day (if the animal's skin is red, swollen and damaged after hair removal, it will its elimination). On the second day, 42 animals with normal skin were selected and randomly divided into groups according to body weight, with 6 animals in each group, totaling 7 groups. Except for the G1 normal control group, each animal in the other groups was evenly smeared with 200 μL of 0.5 wt % dinitrochlorobenzene solution (the solvent was acetone and olive oil with a mass ratio of 3:1) on the back and auricle for three consecutive days every day. Induction (the first stage of induction), the second stage of induction started after 14 days, and was induced with 1 wt % dinitrochlorobenzene solution (the solvent was acetone and olive oil with a mass ratio of 3:1) every three days until the end of the experiment, start treatment and administration at the same time, and group administration is shown in Table 6.
Skin thickness (double layer): Use a vernier caliper to measure the double layer thickness of the back skin on the 1 day before modeling, and on the 14th, 17th, 20th, 23rd, 26th, and 28th days after modeling.
Auricle thickness: Use a vernier caliper to measure the thickness of the right auricle 1 day before modeling, and on days 14, 17, 20, 23, 26, and 28 after modeling.
AD-SI score: The condition score refers to the clinical SI scoring standard, and scores three indicators: skin color/erythema, scaly erythema, scaly/peeling/lichenification, thickening, and thickening/edema degree. The total score is 12 points. Scoring standard as follows:
Erythema/skin color: 0 points, none; 1 points, slight: light red; 2 points, moderate: red; 3 points, significant: dark red; 4 points, very obvious: extremely deep red.
Scaling/peeling/lichenification: 0 points, none; 1 point, slight: there are scales/peeling/lichenification on part of the epidermis, mainly subtle; 2 points, moderate: most of the skin surface is completely or incompletely covered with Scaling/peeling/lichenification, flaky; 3 points, significant: almost all skin is covered with scales/peeling/lichenification, and the scales/peeling/lichenification are thick and layered; 4 points, very obvious: all skin is covered with Scaling/peeling/lichenification, very thick and layered.
Thickening/edema: 0 points, none: flush with normal skin; 1 points, slight: slightly higher than the normal skin surface: 2 points, moderate: moderately raised, with round or sloped plaque edges: 3 points, obvious Score: The plaque is hypertrophic and the bulge is obvious; 4 points, very significant: it is highly thickened and the bulge is very obvious. Skin/auricle hyperplasia inhibition rate (%)=1−[(skin/auricle thickness of the treatment group−skin/auricle thickness of the blank control group)/skin/auricle thickness of the negative control group−skin/auricle of the blank control group thickness)]%.
All data are expressed as Mean±SD or Mean±SEM. Use the statistical analysis software SPSS23.0 to conduct normal distribution and homogeneity of variance tests on the data. […]

[1] = 3 mg/kg oral twice a day, Day 0
[2] = 3 mg/kg oral twice a day, Day 1
[3] = 3 mg/kg oral twice a day, Day 4
[4] = 3 mg/kg oral twice a day, Day 7
[5] = 3 mg/kg oral twice a day, Day 10
[6] = 10 mg/kg oral twice a day, listed as crystalline form A
[7] = 10 mg/kg oral twice a day, Day 0
[8] = 10 mg/kg oral twice a day, Day 1
[9] = 10 mg/kg oral twice a day, Day 4
[10] = 10 mg/kg oral twice a day, Day 7
[11] = 10 mg/kg oral twice a day, Day 10
[12] = 10 mg/kg oral twice a day, Day 10, listed as crystalline form A
[13] = 30 mg/kg oral twice a day, listed as crystalline form A
[14] = 30 mg/kg oral twice a day, Day 0
[15] = 30 mg/kg oral twice a day, Day 1
[16] = 30 mg/kg oral twice a day, Day 4
[17] = 30 mg/kg oral twice a day, Day 7
[18] = 30 mg/kg oral twice a day, Day 10
[19] = 30 mg/kg oral twice a day, Day 10, listed as crystalline form A

C[C@@H](O)c1nc2cnc3[nH]ccc3c2n1N1CCC(CC#N)CC1 [Crystalline form A, (R)-2-(1-(2-(1-hydroxyethyl)imidazo[4,5-d]pyrrolo[2,3-b]pyridine-1(6H)-yl)piperidin-4-yl)acetonitrile]
Inhibition rate of auricular thickening (3 mg/kg oral twice a day): 37.93%
Inhibition rate of skin thickening (3 mg/kg oral twice a day): 14.43%
AD-SI score [1]: 0.00 points
Average auricle thickness [1]: 0.20 ± 0.00 mm
Average skin thickness (double layer) [1]: 0.63 ± 0.01 mm
AD-SI score [2]: 0.00 points
Average auricle thickness [2]: 0.22 ± 0.01 mm
Average skin thickness (double layer) [2]: 0.98 ± 0.01 mm
AD-SI score [3]: 1.00 ± 0.00 points
Average auricle thickness [3]: 0.30 ± 0.01 mm
Average skin thickness (double layer) [3]: 1.08 ± 0.01 mm
AD-SI score [4]: 6.50 ± 1.05 points
Average auricle thickness [4]: 0.39 ± 0.03 mm
Average skin thickness (double layer) [4]: 1.85 ± 0.12 mm
AD-SI score [5]: 5.83 ± 0.75 points
Average auricle thickness [5]: 0.57 ± 0.04 mm and 0.57 mm
Average skin thickness (double layer) [5]: 2.35 ± 0.15 mm and 2.35 mm
Inhibition rate of auricular thickening (10 mg/kg oral twice a day): 43.10%
Inhibition rate of skin thickening (10 mg/kg oral twice a day): 20.40%
Inhibition rate of auricular thickening [6]: 43.1%
Inhibition rate of skin thickening [6]: 20.4%
AD-SI score [7]: 0.00 points
Average auricle thickness [7]: 0.20 ± 0.01 mm
Average skin thickness (double layer) [7]: 0.60 ± 0.02 mm
AD-SI score [8]: 0.00 points
Average auricle thickness [8]: 0.23 ± 0.01 mm
Average skin thickness (double layer) [8]: 0.94 ± 0.02 mm
AD-SI score [9]: 0.50 ± 0.55 points
Average auricle thickness [9]: 0.32 ± 0.01**^ mm
Average skin thickness (double layer) [9]: 1.14 ± 0.04 mm
AD-SI score [10]: 5.83 ± 1.17 points
Average auricle thickness [10]: 0.43 ± 0.03 mm
Average skin thickness (double layer) [10]: 1.49 ± 0.09 mm
AD-SI score [11]: 4.67 ± 0.52 points
Average auricle thickness [11]: 0.54 ± 0.07 mm and 0.54 mm
Average skin thickness (double layer) [11]: 2.23 ± 0.17 mm and 2.23 mm
AD-SI score [12]: 4.67 points
Average auricle thickness [12]: 0.54 mm
Average skin thickness (double layer) [12]: 2.23 mm
Inhibition rate of auricular thickening (30 mg/kg oral twice a day): 50.00%
Inhibition rate of skin thickening (30 mg/kg oral twice a day): 53.73%
Inhibition rate of auricular thickening [13]: 50%
Inhibition rate of skin thickening [13]: 53.73%
AD-SI score [14]: 0.00 points
Average auricle thickness [14]: 0.21 ± 0.01 mm
Average skin thickness (double layer) [14]: 0.62 ± 0.02 mm
AD-SI score [15]: 0.00 points
Average auricle thickness [15]: 0.22 ± 0.01 mm
Average skin thickness (double layer) [15]: 0.79 ± 0.05 mm
AD-SI score [16]: 0.50 ± 0.55 points
Average auricle thickness [16]: 0.29 ± 0.02 mm
Average skin thickness (double layer) [16]: 1.05 ± 0.03 mm
AD-SI score [17]: 3.00 ± 2.19 points
Average auricle thickness [17]: 0.32 ± 0.01 mm
Average skin thickness (double layer) [17]: 1.01 ± 0.08 mm
AD-SI score [18]: 3.50 ± 1.39 points
Average auricle thickness [18]: 0.50 ± 0.03 mm and 0.50 mm
Average skin thickness (double layer) [18]: 1.56 ± 0.21 mm and 1.56 mm
AD-SI score [19]: 3.5 points
Average auricle thickness [19]: 0.5 mm
Average skin thickness (double layer) [19]: 1.56 mm
